Laboratory results: US20050059627A1, “CRF2 ligands in combination therapy” (priority 2000, published 2005)
d = 2'-deoxy (DNA); m = 2'-O-methyl

How the values were obtained:
rats [1] = assay: Elevated plus maze assay; assay type: in vivo, rat; settings: dosed 8 days, tested 2 hours after last injection; FIG. 4a
Text: The elevated plus maze (EPM) is widely used for the determination of anxiolytic or anxiogenic drug effects. The apparatus consists of a +-shaped maze, elevated 50 cm above the floor. Two opposing arms are open and exposed to the environment while the other two arms are enclosed with black Plexiglas sides. In rodents, exposure to the EPM produces an approach/avoidance conflict which generally causes the animal to spend most of its time in the closed arms of the maze.
In the antisense experiment, rats were dosed for 8 days and then tested in the EPM 2 hours after the last oligonucleotide injection. […] Such behavior is indicative of a reduced state of anxiety. […] Binding of ^125I-sauvagine to CRF2 receptors in the lateral septum was reduced by 60% by the antisense oligonucleotide in this experiment (FIG. 4b).
Oligonucleotide treatment of rats was begun on the 8th day following surgery. Rats were tested in the EPM 2 hours following dosing on the 8th day of treatment. At the start of the test, the rat was placed in the center square of the maze and its exploratory behavior during the ensuing 10 minutes was recorded by video-camera. An observer situated outside the test room scored the time spent in the open and closed arms, as well as the number of entries into each arm of the maze. The rats were euthanitized immediately following the conclusion of the test.

rats [2] = assay: Freezing assay of anxiety (shock box); assay type: in vivo, rat
Description: CRF2 antisense oligonucleotides were administered intracerebroventricularly to target the lateral septum, a brain region containing high levels of CRF2 receptor and mRNA. The lateral septum is part of the limbic brain region known for its involvement in modulating fear and emotion. Rats treated with saline, antisense and mismatch-control oligonucleotides were tested in two different behavioral models of anxiety. Rodents display a characteristic freezing behavior when experiencing fear and anxiety. In the freezing model of anxiety, such behavior is induced by exposure to brief electrical foot-shocks. […] Administration of anxiolytic drugs such as benzodiazepines and selective serotonin reuptake inhibitors reduces the duration of freezing when previously shocked animals are returned to the shock box. In the antisense experiments, dosing of oligonucleotides began after two consecutive days of foot-shock treatment. Two hours following the last oligonucleotide administration on day 8 of dosing, rats were returned to the shock box and observed for 10 minutes. In this part of the experiment, which examines the effect of the pharmacological agent on conditioned fears, the antisense oligonucleotide, but not its mismatch control, reduced the duration of freezing by 50% (FIG. 3a). […] Furthermore, a robust suppression of CRF2 receptors produced important functional consequences that may not be apparent at lower levels of CRF2 receptor inhibition.
The shock box consisted of a black Plexiglas chamber with walls and cover. The doors of the box were constructed of clear Plexiglas over which one-way mirrors were attached for observation. The floor of the box contained a Coulbourn stainless steel shock grid with the bars of the grid spaced 1 cm apart. On the 8th day following surgical implantation of the guide cannulae, rats were placed in the box and allowed to habituate for 2 minutes. A total of 3 scrambled, randomized non-escapable foot-shocks (1.0 mA, 1 second duration) were then delivered at 20 second intervals to the grid floor. […]

CRF2 receptors = assay: CRF2 receptor autoradiography: 125I-sauvagine binding in lateral septum of treated rats; assay type: in vivo, rat
Description: Rats were sacrificed by exposure to CO2. Brains were removed and frozen in methylbutane cooled on dry ice before storage at −80° C. Twenty μm sections through the lateral septum were cut on a cryostat(Kopf Instruments) for receptor autoradiography.
After warming to room temperature for 1 hour, brain sections were preincubated for 5 minutes in 50 mM Tris-HCL (pH 7.5) containing 10 mM MgCl2, 2 mM EGTA (ethylene glycol-bis(β-aminoethyl ether)N,N,N′,N′-tetraacetic acid), 0.1% ovalbumin, 0.08 TIU aprotinin and 0.1 mM bacitracin. Total binding was defined using 0.15 nM ^125I-sauvagine (New England Nuclear). CRF2 specific binding was determined in the presence of 1 μM SC-241, a CRF1 selective receptor antagonist (D. H. Rominger et alJ. Pharmacol. Exp. Therap., 286, 459-468, 1998). Non-specific binding was determined using 1 μM a-helical CRF (American Peptide). Incubations were performed in preincubation buffer containing radioligand and appropriate antagonists for 150 minutes. Tissue sections were then washed twice for 5 minutes each, in PBS containing 0.01% Triton X-100. After a final water rinse, excess water was aspirated and the sections were air-dried overnight. The sections and ^125I standard strips (Amersham) were exposed to Hyperfilm μ-Max (Amersham) for 72 hours.
Quantitation of CRF2 specific binding was performed using the NIH ImageMG 1.44 program. Optical density readings were converted to nCi of ligand bound per mg of protein tissue using ^125I standard strips. Between 7 to 9 adjacent sections were quantitated per rat.

CRF2 receptor mRNA = assay: Quantitative in situ hybridization of CRF2 receptor mRNA; assay type: in vivo, rodent; settings: 9 days dosing
Text: The absence of functional changes resulting from small antisense inhibitory effects often leads to non-interpretable results. This is due to the uncertainty of whether the experiment produced truly negative results or whether the antisense inhibition was insufficient to reveal a functional change. In addition to the antisense sequence, the magnitude of antisense inhibitory effects is influenced by the duration of antisense treatment and its relation to the half-life of the targeted protein. While the half-life of the CRF2 receptor is unknown, half-lives of other 7-transmembrane receptors in rodent brain (of which the CRF2 receptor is a member) are on the order of 2-3 days. Maximal inhibitory effects are typically seen after antisense treatment for at least 3 protein half-lives. While CRF2 antisense administration for 5 days produced a 40-50% inhibition of the receptor, increasing the duration of dosing to 9 days led to a 70-80% inhibitory effect on receptor binding. […] Therefore, in contrast to Heinrichs et al. whose CRF2 antisense oligonucleotide produced only a 15-20% CRF2 receptor reduction concomitant with significant weight loss in the treated animals, we have optimized antisense reagents for the study of CRF2 receptor function.

Sequence | time in the open arms of the maze (rats [1]) | reduction in the duration of freezing (rats [2]; after two brief foot-shocks, additional 10 minutes, vs saline or mismatch, FIG. 3a) [%] | freezing in the conditioned anxiety test (rats [2]; combination study: antisense icv 7 days, DPC904 oral, FIG. 7b) | reduction of duration of freezing (rats [2]; conditioned fear, icv, return to shock box, first 10 minutes, FIG. 3a) [%] | inhibition of the receptor (CRF2 receptors; administration for 5 days) | CRF2 receptor binding (CRF2 receptors; combination study, saline/methocel control 1.20±0.05) [nCi/mg] | inhibitory effect on receptor binding (CRF2 receptors; dosing for 9 days) | reduction of binding of 125I-sauvagine to CRF2 receptors in the lateral septum (CRF2 receptors; rats of the elevated plus maze experiment, FIG. 4b) [%] | reduction in 125I-sauvagine binding to CRF2 receptors (CRF2 receptors; septal brain region of rats of the freezing assay, FIG. 3b) [%] | decrease in CRF2 receptor mRNA (CRF2 receptor mRNA) | decrease in receptor binding (CRF2 receptors; 9 days dosing)
TGA CGC agc ggc acC AGA CC (TGACGCAGCGGCACCAGACC; sugars from the 5' end m6 d8 m6, linkages o6 s8 o5 (s phosphorothioate, o phosphodiester), methylation of C not given here) [antisense oligonucleotide] | significantly more time in the open, exposed arms | 50 | significant reductions in freezing | 50 | 40-50% | 0.51±0.08 | 70-80% | 60 | 70 | comparable decreases | –
TGA GGC acc gga acC ACA CC (TGAGGCACCGGAACCACACC; sugars from the 5' end m6 d8 m6, linkages o6 s8 o5 (s phosphorothioate, o phosphodiester), methylation of C not given here) [Mismatch oligonucleotide, 4-base mismatch control of the antisense oligonucleotide, same chimeric chemistry, reference compound] | not statistically different from saline-treated rats | – | – | – | – | – | – | – | – | minimal decreases | minimal decreases
